# Reference: patent publication US6875760B2 (Novo Nordisk A/S, priority 1999, dated 2005)
# pIC50: −log10 of the molar value.
# Molecular target: T1, human glucagon receptor (Homo sapiens, UniProt P47871)
# T1 construct: expressed in transfected cells; host or cells: BHK (baby hamster kidney) cells
# Assay: Glucagon Binding Assay (III)
# Conditions: BHK cell membranes, WGA SPA beads, 125I-glucagon; read-out: Glu Bd Assay (III) IC50
# Description: BHK (baby hamster kidney cell line) cells were transfected with the human glucagon receptor and a membrane preparation of the cells was prepared.
# All steps in the membrane preparation were kept on ice or performed at 4° C. BHK cells were harvested and centrifuged. […] The pellet was resuspended in homogenisation buffer, homogenised 2×10 sec (Polytron) and additional homogenisation buffer was added. […] (Polytron).
# The glucagon binding assay was carried out in opti plates (Polystyrene Microplates, Packard). […] Finally 50 μL WGA beads containing 1 mg beads were transferred to the well. The assay was incubated for 4 hours on a shaker and then settled for 8-48 hours. The opti plates were counted in a Topcounter. Non-specific binding was determined with 500 nM of glucagon.
# T1 sequence (P47871 26-477): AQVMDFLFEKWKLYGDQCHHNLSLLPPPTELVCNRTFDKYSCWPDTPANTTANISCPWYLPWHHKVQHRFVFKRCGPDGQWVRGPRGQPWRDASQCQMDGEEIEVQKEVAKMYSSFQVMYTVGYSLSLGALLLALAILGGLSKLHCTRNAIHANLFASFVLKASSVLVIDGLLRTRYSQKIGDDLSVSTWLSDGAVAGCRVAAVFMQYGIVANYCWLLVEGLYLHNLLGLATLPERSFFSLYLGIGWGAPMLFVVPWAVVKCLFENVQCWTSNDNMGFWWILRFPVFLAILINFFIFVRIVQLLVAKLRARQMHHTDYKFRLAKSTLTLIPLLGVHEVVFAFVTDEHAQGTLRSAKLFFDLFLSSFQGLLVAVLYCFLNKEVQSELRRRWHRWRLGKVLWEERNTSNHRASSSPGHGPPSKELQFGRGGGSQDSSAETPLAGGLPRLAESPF
row,SMILES,pIC50
1,"CCCCOc1ccc(NC(=O)N(Cc2ccc(C(=O)Nc3nn[nH]n3)cc2)c2ccc(C(C)(C)C)cc2)cc1S(C)(=O)=O [Example 367, 4-[3-(4-Butoxy-3-methylsulfonylphenyl)-1-(4-tert-butylphenyl)ureidomethyl]-N-(2H-tetrazol-5-yl)benzamide]",7.47
2,"O=C(Nc1nn[nH]n1)c1ccc(CN(C(=O)Nc2nc3ccc([N+](=O)[O-])cc3s2)c2ccc(C3CCCCC3)cc2)cc1 [Example 342, 4-[1-(4-Cyclohexylphenyl)-3-(6-nitrobenzothiazol-2-yl)ureidomethyl]-N-(2H-tetrazol-5-yl)benzamide]",6.42
3,"COc1ccc(NC(=O)N(Cc2ccc(C(=O)Nc3nn[nH]n3)cc2)c2ccc(C(C)(C)C)cc2)cc1S(C)(=O)=O [Example 339, 4-[1-(4-tert-Butylphenyl)-3-(3-methylsulfonyl-4-methoxyphenyl)ureidomethyl]-N-(2H-tetrazol-5-yl)benzamide]",6.10
4,"CC(C)(C)C1CCC(N(Cc2ccc(C(=O)NCCC(=O)O)cc2)C(=O)Nc2ccc(Cl)cc2)CC1 (stereo not shown) [Example 34, 3-{4-[1-(4-tert-Butylcyclohexyl)-3-(4-chlorophenyl)ureidomethyl]benzoyl}aminopropionic acid]",6.34
5,"CC(C)(C)[C@H]1CC[C@H](N(Cc2ccc(C(=O)NCCC(=O)NO)cc2)C(=O)Nc2ccc(OC(F)(F)F)cc2)CC1 [Example 376, 4-[1-(trans-4-tert-Butylcyclohexyl)-3-(4-trifluoromethoxyphenyl)ureidomethyl]-N-(2-hydroxycarbamoylethyl)benzamide]",6.41
6,"CC(O)c1cccc(NC(=O)N(Cc2ccc(C(=O)Nc3nn[nH]n3)cc2)c2ccc(C(C)(C)C)cc2)c1 (stereo not shown) [Example 309, 4-{1-(4-tert-Butylphenyl)-3-[3-(1-hydroxyethyl)phenyl]ureidomethyl}-N-(2H-tetrazol-5-yl)benzamide]",6.25
7,"CC(C)(C)[C@H]1CC[C@H](N(Cc2ccc(C(=O)NCCC(=O)O)cc2)C(=O)Nc2ccc(Cl)cc2Cl)CC1 [Example 35, 3-{4-[1-(4-trans-tert-Butylcyclohexyl)-3-(2,4-dichlorophenyl)ureidomethyl]benzoylamino}propionic acid]",6.45
8,"CC1CCC(N(Cc2ccc(C(=O)NCCC(=O)O)cc2)C(=O)Nc2ccc(OCc3ccccc3)cc2)CC1 (stereo not shown) [Example 45, 3-{4-[3-(4-Benzyloxyphenyl)-1-(4-methylcyclohexyl)ureidomethyl]benzoylamino}propionic acid]",5.92
9,"CC(Oc1ccc(OC(F)(F)F)cc1)C(=O)N(Cc1ccc(C(=O)Nc2nn[nH]n2)cc1)c1ccc(N2CCCCC2)cc1 (stereo not shown) [Example 554, 4-({(4-Piperidin-1-ylphenyl)-[2-(4-trifluoromethoxyphenoxy)propionyl]amino}methyl)-N-(2H-tetrazol-5-yl)benzamide]",6.10
10,"CC(C)(C)C1CCC(N(Cc2ccc(C(=O)Nc3nn[nH]n3)cc2)C(=O)C2=CCc3ccccc32)CC1 (stereo not shown) [Example 474, 3H-Indene-1-carboxylic acid (4-tert-butylcyclohexyl)-[4-(2H-tetrazol-5-ylcarbamoyl)benzyl]amide]",5.90
11,"CC(C)c1ccc(NC(=O)N(CCc2ccc(Cl)cc2)Cc2ccc(C(=O)NCCC(=O)O)cc2)cc1 [Example 52, 3-{4-[1-[2-(4-Chlorophenyl)ethyl]-3-(4-isopropylphenyl)ureidomethyl]benzoylamino}propionic acid]",6.42
12,"O=C(Nc1nn[nH]n1)c1ccc(CN(C(=O)c2cccc(C(F)(F)F)c2)c2ccc(C3CCCCC3)cc2)cc1 [Example 510, 4-{[(4-Cyclohexylphenyl)-(3-trifluoromethylbenzoyl)amino]methyl}-N-(2H-tetrazol-5-yl)benzamide]",5.96

# Second part, the compound after the results:
row,pIC50,SMILES
1,7.54,"CC(C)(C)[C@H]1CC[C@H](N(Cc2ccc(C(=O)Nc3nn[nH]n3)cc2)C(=O)Nc2cc(C(F)(F)F)cc(C(F)(F)F)c2)CC1 [Example 375, 4-[3-(3,5-Bis(trifluoromethyl)phenyl)-1-(trans-4-tert-butylcyclohexyl)ureidomethyl]-N-(2H-tetrazol-5-yl)benzamide]"
2,6.75,"COc1ccc(NC(=O)N(Cc2ccc(C(=O)Nc3nn[nH]n3)cc2)c2ccc(C3CCCCC3)cc2)cc1S(C)(=O)=O [Example 340, 4-[1-(4-Cyclohexylphenyl)-3-(3-methylsulfonyl-4-methoxyphenyl)ureidomethyl]-N-(2H-tetrazol-5-yl)benzamide]"
3,6.60,"CCCCc1ccc(N(Cc2ccc(C(=O)Nc3nn[nH]n3)cc2)C(=O)Nc2ccccc2)cc1 [Example 280, 4-[1-(4-Butylphenyl)-3-phenylureidomethyl]-N-(2H-tetrazol-5-yl)benzamide]"
4,6.66,"O=C(O)CCNC(=O)c1ccc(CN(NC(=O)c2ccc(OC(F)(F)F)cc2)C2C[C@@H]3C[C@H]2C2CCCC23)cc1 (stereo partly shown) [Example 425, 3-{4-[N-(Octahydro-4,7-methanoinden-5-yl)-N′-(4-trifluoromethoxybenzoyl)hydrazinomethyl]benzoylamino}propionic acid]"
5,7.01,"CC(C)(C)C1CCC(N(Cc2ccc(C(=O)Nc3nn[nH]n3)cc2)C(=O)c2ccc(C3CCCCC3)cc2)CC1 (stereo not shown) [Example 488, 4-{[(4-tert-Butylcyclohexyl)-(4-cyclohexylbenzoyl)amino]methyl}-N-(2H-tetrazol-5-yl)benzamide]"
6,7.55,"CC(C)(C)C1CCC(N(Cc2ccc(C(=O)Nc3nn[nH]n3)cc2)C(=O)Cc2ccc(OC(F)(F)F)cc2)CC1 (stereo not shown) [Example 502, 4-({(4-tert-Butylcyclohexyl)-[2-(4-trifluoromethoxyphenyl)acetyl]amino}methyl)-N-(2H-tetrazol-5-yl)benzamide]"
7,7.68,"O=C(Nc1nn[nH]n1)c1ccc(CN(C(=O)Nc2cccc(C(F)(F)F)c2)c2ccc(C3=CCCCC3)cc2)cc1 [Example 326, 4-[1-(4-Cyclohex-1-enylphenyl)-3-(3-trifluoromethylphenyl)ureidomethyl]-N-(2H-tetrazol-5-yl)benzamide]"
8,7.59,"CC(C)(C)[C@H]1CC[C@@H](N(Cc2ccc(C(=O)Nc3nn[nH]n3)cc2)C(=O)Nc2cc(C(F)(F)F)cc(C(F)(F)F)c2)CC1 [Example 603, 4-[3-(3,5-Bis(trifluoromethyl)phenyl)-1-(cis-4-tert-butylcyclohexyl)ureidomethyl]-N-(2H-tetrazol-5-yl)benzamide]"
9,6.90,"O=C(O)CCNC(=O)c1ccc(CN(C(=O)Nc2ccc(OC(F)(F)F)cc2)c2ccc(N3CCCCC3)cc2)cc1 [Example 434, 3-{4-[1-(4-Piperidin-1-ylphenyl)-3-(4-trifluoromethoxyphenyl)ureidomethyl]benzoylamino}propionic acid]"
10,7.66,"CC(NC(=O)N(Cc1ccc(C(=O)Nc2nn[nH]n2)cc1)c1ccc(C2CCCCC2)cc1)c1ccc(Cl)cc1 (single isomer, unassigned) [Example 337, 4-[3-[1-(4-Chlorophenyl)ethyl]-1-(4-Cyclohexylphenyl)ureidomethyl]-N-(2H-tetrazol-5-yl)benzamide]"
11,7.25,"O=C(Nc1nn[nH]n1)c1ccc(CN(C(=O)Nc2nc3ccc(OC(F)(F)F)cc3s2)c2ccc(C3CCCCC3)cc2)cc1 [Example 341, 4-[1-(4-Cyclohexylphenyl)-3-(6-trifluoromethoxybenzothiazol-2-yl)ureidomethyl]-N-(2H-tetrazol-5-yl)benzamide]"
12,7.21,"CS(=O)(=O)c1cccc(NC(=O)N(Cc2ccc(C(=O)Nc3nn[nH]n3)cc2)c2ccc(C3=CCCCC3)cc2)c1 [Example 310, 4-[1-(4-Cyclohex-1-enylphenyl)-3-(3-methylsulfonylphenyl)ureidomethyl]-N-(2H-tetrazol-5-yl)benzamide]"
13,6.59,"C[S+]([O-])c1cccc(NC(=O)N(Cc2ccc(C(=O)Nc3nn[nH]n3)cc2)c2ccc(C3CCCCC3)cc2)c1 (stereo not shown) [Example 472, 4-[1-(4-Cyclohexylphenyl)-3-(3-methylsulfinylphenyl)ureidomethyl]-N-(2H-tetrazol-5-yl)benzamide]"
14,7.08,"O=C(Nc1nn[nH]n1)c1ccc(CN(C(=O)Nc2ccccc2)c2ccc(C3CCCCC3)cc2)cc1 [Example 279, 4-[1-(4-Cyclohexylphenyl)-3-phenylureidomethyl]-N-(2H-tetrazol-5-yl)benzamide]"
15,7.05,"CCCCc1ccc(N(Cc2ccc(C(=O)NCCC(=O)O)cc2)C(=O)Nc2ccc(OC(F)(F)F)cc2)cc1 [Example 372, 3-{4-[1-(4-Butylphenyl)-3-(4-trifluoromethoxyphenyl)ureidomethyl]benzoylamino}propionic acid]"
16,7.06,"CC(=O)c1cccc(NC(=O)N(Cc2ccc(C(=O)Nc3nn[nH]n3)cc2)c2ccc(C(C)(C)C)cc2)c1 [Example 297, 4-[3-(3-Acetylphenyl)-1-(4-tert-butylphenyl)ureidomethyl]-N-(2H-tetrazol-5-yl)benzamide]"
17,6.57,"O=C(Nc1nn[nH]n1)c1ccc(CN(C(=O)Nc2ccccc2OC(F)(F)F)c2ccc(C3CCCCC3)cc2)cc1 [Example 350, 4-[1-(4-Cyclohexylphenyl)-3-(2-trifluoromethoxyphenyl)ureidomethyl]-N-(2H-tetrazol-5-yl)benzamide]"

# Same assay, conditions: Glu Bd Assay (III) IC50 (nM), BHK cell membranes, WGA SPA beads, 125I-glucagon
row,SMILES,IC50 [nM]
1,"CC(C)(C)[C@H]1CC[C@H](N(Cc2ccc(C(=O)NCC(=O)O)cc2)C(=O)Nc2ccc(OC(F)(F)F)cc2)CC1 [Example 95, 3-{4-[1-(trans-4-tert-Butylcyclohexyl)-3-(4-trifluoromethoxyphenyl)ureidomethyl]benzoylamino}acetic acid]",1700
2,"CC(C)(C)[C@H]1CC[C@H](N(Cc2ccc(C(=O)NCCC(=O)O)cc2)C(=O)Nc2cc(Cl)cc(Cl)c2)CC1 [Example 255, 3-{4-[1-(trans-4-tert-Butylcyclohexyl)-3-(3,5-dichlorophenyl)ureidomethyl]benzoylamino}propionic acid]",80
